Experimental data: patent publication US10202361B2, “Pyridazinones as herbicides” (E I DU PONT DE NEMOURS AND COMPANY, priority 2014, dated 2019)
Where two headings read alike, the source gives them in different places.

Experiments:
Assay type in all cases: in vivo
[1] = test system: chickweed (common chickweed, Stellaria media); assay: Test C postemergence greenhouse herbicide test
Source text: At the same time, plants selected from these crop and weed species and also barley (winter barley, Hordeum vulgare), canarygrass (Phalaris minor), windgrass (Apera spica-venti), deadnettle (henbit deadnettle, Lamium amplexicaule), and chickweed (common chickweed, Stellaria media) were planted in pots containing Redi-Earth® planting medium (Scotts Company, 14111 Scottslawn Road, Marysville, Ohio 43041) comprising spaghnum peat moss, vermiculite, wetting agent and starter nutrients and treated with postemergence applications of test chemicals formulated in the same manner. Plants ranged in height from 2 to 18 cm (1- to 4-leaf stage) for postemergence treatments. Treated plants and controls were maintained in a greenhouse for 13 to 15 d, after which time all species were compared to controls and visually evaluated. Plant response ratings, summarized in Table C, are based on a scale of 0 to 100 where 0 is no effect and 100 is complete control. A dash (-) response means no test result.

[2] = test system: morningglory (Ipomoea spp.); assay: Test A pre-/postemergence greenhouse herbicide test; details: Ipomoea, 240 h, 0 to 100 scale (0 no effect, 100 complete control), approx. 10 d, read-out: Plant response rating, Morningglory; for pest or weed control at 125 g/ha: 125 g ai/ha; for pest or weed control at 500 g/ha: 500 g ai/ha
Summary of the method: (§1)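 Seeds sown in loam–sand blend received a directed preemergence soil spray; postemergence spray was applied at the same time to plants 2–10 cm tall at one- to two-leaf stage. Compounds were in non-phytotoxic solvent with surfactant. Visual injury versus untreated controls after ~10 d in greenhouse, 0–100 scale (100 = complete control).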

corn (Zea mays) = assay: as above; details: Zea mays, 240 h, 0 to 100 scale (0 no effect, 100 complete control), approx. 10 d; for Corn plant response rating (crop injury, 0 = no effect, 100 = complete kill) at 125 g/ha: 125 g ai/ha; for Corn plant response rating (crop injury, 0 = no effect, 100 = complete kill) at 500 g/ha: 500 g ai/ha
Summary of the method: as §1

[3] = test system: barnyardgrass (Echinochloa crus-galli); assay: as above; details: Echinochloa crus-galli, 240 h, 0 to 100 scale (0 no effect, 100 complete control), approx. 10 d, read-out: Plant response rating, Barnyardgrass; for pest or weed control at 125 g/ha: 125 g ai/ha; for pest or weed control at 500 g/ha: 500 g ai/ha
Summary of the method: as §1

[4] = test system: foxtail, giant (giant foxtail, Setaria faberii); assay: as above; details: Setaria faberi, 240 h, 0 to 100 scale (0 no effect, 100 complete control), approx. 10 d, read-out: Plant response rating, Foxtail, Giant; for pest or weed control at 125 g/ha: 125 g ai/ha; for pest or weed control at 500 g/ha: 500 g ai/ha
Summary of the method: as §1

[5] = test system: velvetleaf (Abutilon theophrasti); assay: as above; details: Abutilon theophrasti, 240 h, 0 to 100 scale (0 no effect, 100 complete control), approx. 10 d, read-out: Plant response rating, Velvetleaf; for pest or weed control at 125 g/ha: 125 g ai/ha; for pest or weed control at 500 g/ha: 500 g ai/ha
Summary of the method: as §1

[6] = test system: goosegrass (Eleusine indica); assay: Test E pre-/postemergence greenhouse herbicide test; details: Preemergence, scale 0 to 100
[7] = test system: sedge, umbrella (small-flower umbrella sedge, Cyperus difformis); assay: Test B flooded paddy test; details: Cyperus difformis, 312 h; Flood, 125 g ai/ha; scale of 0 to 100, 0 is no effect, 100 is complete control; 13 to 15 d; read-out: Plant response rating, Sedge, Umbrella
Summary of the method: (§2)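 Plants were raised to the 2-leaf stage, then pots were flooded to 3 cm above the soil and the test compound was applied directly into the paddy water, with that depth held throughout. After 13 to 15 d in a greenhouse, injury was rated visually against untreated controls on a 0–100 scale (0 = no effect, 100 = complete control).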

[8] = test system: ducksalad (Heteranthera limosa); assay: Test B flooded paddy test; details: Heteranthera limosa, 312 h; Flood, 125 g ai/ha; scale of 0 to 100, 0 is no effect, 100 is complete control; 13 to 15 d; read-out: Plant response rating, Ducksalad
Summary of the method: as §2

rice (Oryza sativa) = assay: Test B flooded paddy test; details: Oryza sativa, 312 h; Flood, 125 g ai/ha; scale of 0 to 100, 0 is no effect, 100 is complete control; 13 to 15 d; read-out: Plant response rating, Rice
Summary of the method: as §2

[9] = test system: barnyardgrass (Echinochloa crus-galli); assay: Test B flooded paddy test; details: Echinochloa crus-galli, 312 h; Flood, 125 g ai/ha; scale of 0 to 100, 0 is no effect, 100 is complete control; 13 to 15 d; read-out: Plant response rating, Barnyardgrass
Summary of the method: as §2

Row | Compound | Plant response rating ([1]; 31 g ai/ha) | Plant response rating ([1]; 62 g ai/ha) | Plant response rating ([1]; 125 g ai/ha) | Plant response rating ([1]; 250 g ai/ha) | pest or weed control at 125 g/ha ([2]; post-emergence, Postemergence) | pest or weed control at 500 g/ha ([2]; post-emergence, Postemergence) | Corn plant response rating (crop injury, 0 = no effect, 100 = complete kill) at 125 g/ha (corn (Zea mays); post-emergence, Postemergence) | Corn plant response rating (crop injury, 0 = no effect, 100 = complete kill) at 500 g/ha (corn (Zea mays); post-emergence, Postemergence) | Corn plant response rating (crop injury, 0 = no effect, 100 = complete kill) at 125 g/ha (corn (Zea mays); pre-emergence, Preemergence) | Corn plant response rating (crop injury, 0 = no effect, 100 = complete kill) at 500 g/ha (corn (Zea mays); pre-emergence, Preemergence) | pest or weed control at 125 g/ha ([3]; post-emergence, Postemergence) | pest or weed control at 500 g/ha ([3]; post-emergence, Postemergence) | pest or weed control at 125 g/ha ([3]; pre-emergence, Preemergence) | pest or weed control at 500 g/ha ([3]; pre-emergence, Preemergence) | pest or weed control at 125 g/ha ([4]; post-emergence, Postemergence) | pest or weed control at 500 g/ha ([4]; post-emergence, Postemergence) | pest or weed control at 125 g/ha ([4]; pre-emergence, Preemergence) | pest or weed control at 500 g/ha ([4]; pre-emergence, Preemergence) | pest or weed control at 125 g/ha ([5]; post-emergence, Postemergence) | pest or weed control at 500 g/ha ([5]; post-emergence, Postemergence) | other results
1 | COc1cc(=O)n(-c2ccc(C(F)(F)F)cc2)nc1Cc1ccnc(C(F)(F)F)c1 [Compound 16, 5-methoxy-2-[4-(trifluoromethyl)phenyl]-6-[[2-(trifluoromethyl)-4-pyridinyl]methyl]-3(2H)-pyridazinone] | 80 | 90 | 90 | 98 | 90% | 100% | 20% | 80% | 40% | 70% | 80% | 90% | 90% | 100% | 90% | 90% | 100% | 100% | 80% | 100% | pest or weed control at 125 g/ha ([2]; pre-emergence, Preemergence): 80%; pest or weed control at 500 g/ha ([2]; pre-emergence, Preemergence): 80%; pest or weed control at 125 g/ha ([5]; pre-emergence, Preemergence): 30%; pest or weed control at 500 g/ha ([5]; pre-emergence, Preemergence): 80%; Plant response rating: Goosegrass ([6]; 62 g ai/ha): 5; Plant response rating: Goosegrass ([6]; 125 g ai/ha): 20; Plant response rating: Goosegrass ([6]; 250 g ai/ha): 50; pest or weed control at 125 g/ha [7]: 80%; pest or weed control at 125 g/ha [8]: 20%; plant injury at 125 g/ha (rice (Oryza sativa)): 35%; pest or weed control at 125 g/ha [9]: 45%
2 | COc1cc(=O)n(-c2ccc(F)cc2)nc1Cc1ccnc(C(F)(F)F)c1 [Compound 17, 2-(4-fluorophenyl)-5-methoxy-6-[[2-(trifluoromethyl)-4-pyridinyl]methyl]-3 (2H)-pyridazinone] | 70 | 85 | 85 | 95 | 100% | 100% | 60% | 80% | 40% | 50% | 80% | 90% | 80% | 100% | 90% | 90% | 100% | 100% | 100% | 100% | pest or weed control at 125 g/ha ([5]; pre-emergence, Preemergence): 100%; pest or weed control at 500 g/ha ([5]; pre-emergence, Preemergence): 100%; Plant response rating: Goosegrass ([6]; 16 g ai/ha): 0; Plant response rating: Goosegrass ([6]; 31 g ai/ha): 20; Plant response rating: Goosegrass ([6]; 62 g ai/ha): 60; Plant response rating: Goosegrass ([6]; 125 g ai/ha): 95; Plant response rating: Goosegrass ([6]; 250 g ai/ha): 98; pest or weed control at 125 g/ha [7]: 90%; pest or weed control at 125 g/ha [8]: 90%; plant injury at 125 g/ha (rice (Oryza sativa)): 70%; pest or weed control at 125 g/ha [9]: 90%
